From patent US8501746B2, “Organic compounds” (Xenon Pharmaceuticals Inc., priority 2006, dated 2013)

Legend:
[1] = target: T1, stearoyl-CoA desaturase (SCD1) (Mus musculus, UniProt P13516); test: SCD microsomal assay: release of 3H2O from [9,10-3H]stearoyl-CoA in mouse liver microsomes; type: biochemical; conditions: 15 min incubation, 25° C.
T1 construct: Reactions are started by adding 50 μL of microsomes (1.25 mg/mL); from tissue; host or cells: liver microsomes of male ICR outbred mice on a high-carbohydrate, low-fat diet
T1 sequence (P13516 1-355): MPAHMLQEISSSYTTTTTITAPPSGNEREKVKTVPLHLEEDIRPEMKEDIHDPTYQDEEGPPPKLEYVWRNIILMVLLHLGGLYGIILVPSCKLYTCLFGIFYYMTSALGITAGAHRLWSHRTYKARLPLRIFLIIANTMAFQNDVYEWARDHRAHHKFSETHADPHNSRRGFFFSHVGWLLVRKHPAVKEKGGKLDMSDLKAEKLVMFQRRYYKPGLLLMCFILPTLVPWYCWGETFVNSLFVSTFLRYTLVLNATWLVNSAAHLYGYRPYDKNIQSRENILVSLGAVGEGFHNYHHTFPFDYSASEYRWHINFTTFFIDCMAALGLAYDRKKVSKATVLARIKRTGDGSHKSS
Protocol: Measuring Stearoyl-CoA Desaturase Inhibition Activity of a Test Compound Using Mouse Liver Microsomes
Livers are immediately rinsed with cold 0.9% NaCl solution, weighed and minced with scissors. All procedures are performed at 4° C. unless specified otherwise. Livers are homogenized in a solution (1/3 w/v) containing 0.25 M sucrose, 62 mM potassium phosphate buffer (pH 7.0), 0.15 M KCl, 15 mM N-acetylcysteine, 5 mM MgCl2, and 0.1 mM EDTA using 4 strokes of a Potter-Elvehjem tissue homogenizer. The homogenate is centrifuged at 10,400×g for 20 min to eliminate mitochondria and cellular debris. The supernatant is filtered through a 3-layer cheesecloth and centrifuged at 105,000×g for 60 min. The microsomal pellet is gently resuspended in the same homogenization solution with a small glass/teflon homogenizer and stored at −70° C. The absence of mitochondrial contamination is enzymatically assessed. The protein concentration is measured using bovine serum albumin as the standard.
Incubation of Mouse Liver Microsomes with Test Compounds:
Desaturase activity is measured as the release of ^3H2O from [9,10-^3H]stearoyl-CoA. Reactions per assay point conditions are as follows: 2 μL 1.5 mM stearoyl-CoA, 0.25 μL 1 mCi/mL ^3H stearoyl CoA, 10 μL 20 mM NADH, 36.75 μL 0.1 M PK buffer (K2HPO4/NaH2PO4, pH 7.2). The test compound or control solution is added in a 1 μL volume. […] The plates are mixed and after 15 min incubation on a heating block (25° C.), the reactions are stopped by the addition of 10 μL 60% PCA. An aliquot of 100 μL is then transferred to a filter plate pretreated with charcoal and the plate centrifuged at 4000 rpm for 1 minute. The flow through containing the ^3H2O released by the SCD1 desaturation reaction is added to scintillation fluid and the radioactivity measured in a Packard TopCount. The data is analysed to identify the IC50 for test compounds and reference compounds.
The activity was defined in terms of % SCD enzyme activity remaining at the desired concentration of the test compound or as the IC50 concentration.

Row | melting point | IC50 [1] | SMILES
1 | 218 to 220 °C | 400 nM | Cc1nc(-n2ccc(OCC3CC3)cc2=O)sc1C(=O)NCc1ccccc1 [Example 1.1, N-Benzyl-2-(4-(cyclopropylmethoxy)-2-oxopyridin-1(2H)-yl)-4-methylthiazole-5-carboxamide]
2 | 205 to 208 °C | 90 nM | COc1ccn(-c2nc(C)c(C(=O)NCc3ccccc3)s2)c(=O)c1 [Example 1.2, N-Benzyl-2-(4-methoxy-2-oxopyridin-1(2H)-yl)-4-methylthiazole-5-carboxamide]
3 | 183 to 184 °C | 220 nM | Cc1nc(-n2ccc(OCc3ccccc3)cc2=O)[nH]c1C(=O)NCc1ccccc1 [Example 1.7, N-Benzyl-2-(4-(benzyloxy)-2-oxopyridin-1(2H)-yl)-4-methyl-1H-imidazole-5-carboxamide]
4 |  | 430 nM | Cc1nc(-n2ccc(O)cc2=O)sc1C(=O)NCc1ncco1 [Example 1.22, 2-(4-Hydroxy-2-oxopyridin-1(2H)-yl)-4-methyl-N-(oxazol-2-ylmethyl)thiazole-5-carboxamide]
5 | 203 to 204 °C | 150 nM | Cc1nc(-n2cccc(C(F)(F)F)c2=O)sc1C(=O)NCc1ccccc1 [Example 3.5, N-Benzyl-4-methyl-2-(2-oxo-3-(trifluoromethyl)pyridin-1(2H)-yl)thiazole-5-carboxamide]
6 | 218 to 221 °C | 30 nM | Cc1nc(-n2ccc3c(O)cccc3c2=O)sc1C(=O)NCc1ccccc1 [Example 7.1, N-Benzyl-2-(5-hydroxy-1-oxoisoquinolin-2(1H)-yl)-4-methylthiazole-5-carboxamide]
7 | 110 °C (dec.) | 800 nM | Cc1cc(-n2ccc(O)cc2=O)sc1C(=O)NCc1cccnc1 [Example 7.6, 5-(4-Hydroxy-2-oxopyridin-1(2H)-yl)-3-methyl-N-(pyridin-3-ylmethyl)thiophene-2-carboxamide]
8 | 145 to 147 °C |  | Cc1ccn(-c2nc(C)c(C(=O)NCc3ccccc3)s2)c(=O)c1 [Example 20, N-Benzyl-4-methyl-2-(4-methyl-2-oxopyridin-1(2H)-yl)thiazole-5-carboxamide]
9 | 145 to 146 °C |  | Cc1cc(-n2ccc(CCc3ccccc3)cc2=O)sc1C(=O)NCc1ccccc1 [Example 24, N-benzyl-3-methyl-5-(2-oxo-4-phenethylpyridine-1(2H)-yl)thiophene-2-carboxamide]
10 | 255 to 257 °C |  | COc1ccn(-c2nc(C)c(C(=O)NCc3ccc[n+]([O-])c3)s2)c(=O)c1 [Example 27, 3-((2-(4-methoxy-2-oxopyridin-1(2H)-yl)-4-methylthiazole-5-carboxamido)methyl)pyridine 1-oxide]

Continued, compound first:

Row | SMILES | melting point | IC50 [1]
11 | Cc1nc(-n2ccccc2=O)sc1C(=O)NCc1ccc(F)cc1 [Example 3.11, N-(4-Fluorobenzyl)-4-methyl-2-(2-oxopyridin-1(2H)-yl)thiazole-5-carboxamide] | 170 to 172 °C | 230 nM
12 | Cc1cc(-n2ccc(OCc3ccccc3)cc2=O)oc1C(=O)NCc1ccccc1 [Example 3.19, N-Benzyl-5-(4-(benzyloxy)-2-oxopyridin-1(2H)-yl)-3-methylfuran-2-carboxamide] | 191 to 192 °C | 5700 nM
13 | Cc1nc(-n2ccc(C3CC3)cc2=O)sc1C(=O)NCc1ccccc1 [Example 19.1, N-Benzyl-2-(4-cyclopropyl-2-oxopyridin-1(2H)-yl)-4-methylthiazole-5-carboxamide] | 149 to 151 °C | 
14 | Cc1nc(-n2ccc(OCc3c(C)noc3C)cc2=O)sc1C(=O)NCc1ccccc1 [Example 21.13, N-benzyl-2-(4-((3,5-dimethylisoxazol-4-yl)methoxy)-2-oxopyridin-1(2H)-yl)-4-methylthiazole-5-carboxamide] |  | 180 nM
15 | Cc1nc(-n2ccc(OCc3ccccc3)cc2=O)sc1C(=O)NCc1ccc(Cl)nc1 [Example 22.19, 2-(4-(Benzyloxy)-2-oxopyridin-1(2H)-yl)-N-((6-chloropyridin-3-yl)methyl)-4-methylthiazole-5-carboxamide] |  | 50 nM
16 | Cc1cc(-n2ccc(OCCCO)cc2=O)sc1C(=O)NCc1cccc(F)c1 [Example 25, N-(3-Fluorobenzyl)-5-(4-(3-hydroxypropoxy)-2-oxopyridin-1(2H)-yl)-3-methylthiophene-2-carboxamide] | 135 to 137 °C | 
17 | Cc1nc(-n2ccc(N3CCNC3=O)cc2=O)sc1C(=O)NCc1ccccc1 [Example 26, N-Benzyl-4-methyl-2-(2-oxo-4-(2-oxoimidazolidin-1-yl)pyridin-1(2H)-yl)thiazole-5-carboxamide] | > 300 °C | 
